The values that follow come from patent US20110085978A1, “NOVEL QUINOLINYLAMIDE DERIVATIVES USEFUL AS MODULATORS OF DOPAMINE AND SEROTONIN RECEPTORS” (NeuroSearch A/S, priority 2008, published 2011).

The test concerns MK801 induced hyperactivity in female NMRI mice. Description: MK801 induced hyperactivity. Particulars: test compound subcutaneously 30 minutes before test start at 3, 10, 30 mg/kg, MK801 0.2 mg/kg ip. Format: in vivo. On the procedure:
Female NMRI mice (Taconic M&B, P.O. box 1079, DK-8680 Ry, Denmark) are kept in a ventilated closed rack (Scantainer, Scanbur Ltd., Denmark) at constant temperature (21° C.) and humidity (60-70%) with a 7:00 a.m light/7:00 p.m dark cycle. Food (altromin rat pellets) and water were available ad libitum.
Experiments were conducted during daytime in the light phase. The animals were habituated to the experimental room approximately 24 hours before start of the experiments.
MK801 induced hyperactivity was measured in automated activity frames (TSE Home Cage Activity Monitoring System, MoTil, TSE technical & scientific equipment GmbH, Germany) equipped with infrared photobeam emitters and sensors. MK801 was administered in a dose of 0.2 mg/kg ip immediately before test start.
Test compound was pretreated subcutaneously 30 minutes before test start at the following doses 3, 10, 30 mg/kg in a dose volume of 10 ml/kg.

In the case of `COc1ccccc1N1CCN(CCCCC(=O)Nc2ccc3ncccc3c2)CC1` [Compound A3, 5-[4-(2-Methoxy-phenyl)-piperazin-1-yl]-pentanoic acid quinolin-6-ylamide], the “Minimal Effective Dose (M.E.D) that significantly reduces MK801 induced hyperactivity” value is given as 10 mg/kg.

As to `O=C(CCCCN1CCC(c2ccccc2)CC1)Nc1ccc2ncccc2c1` [Compound A4, 5-(4-Phenyl-piperidin-1-yl)-pentanoic acid quinolin-6-ylamide], the “Minimal Effective Dose (M.E.D) that significantly reduces MK801 induced hyperactivity” value came out at 10 mg/kg.
